Measured values taken from patent US5968581A, “Dipeptide derivatives and sweetening agents” (Ajinomoto Co., Inc., priority 1997, dated 1999).
Where two headings read alike, the source gives them in different places. Residues, ends and D or L forms follow the SMILES beside them.

Assays:
[1] = Stability (half-life) in acidic aqueous solution, pH 3 phosphate buffer at 70° C.
[2] = Sensory evaluation: degree of sweetness relative to sucrose; conditions: times that of 4% sucrose solution
[3] = pH 3

| SMILES | Stability (half-life, time corresponding to 50% degradation) [1] | Stability (half-life, time corresponding to 50% degradation) ([1]; listed as N-3,3-dimethylbutyl-α-L-aspartyl-α-methyl-L-tyrosine methyl. ester) | Degree of sweetness (relative to sugar) [2] | Degree of sweetness (relative to sugar) ([2]; listed as N-3,3-dimethylbutyl-α-L-aspartyl-α-methyl-L-tyrosine methyl ester) | Stability (half-life, time corresponding to 50% degradation) [3] |
| --- | --- | --- | --- | --- | --- |
| COC(=O)[C@](C)(Cc1ccc(O)cc1)NC(=O)[C@H](CC(=O)O)NCCC(C)(C)C [Example 2, N-3,3-dimethylbutyl-α-L-aspartyl-α-methyl-L-tyrosine methyl ester] | 14.5 days | about 347 hours | 700 times | about 700 times | – |
| COC(=O)[C@H](Cc1ccccc1)NC(=O)[C@@H](N)CC(=O)O [aspartame] (H-Asp-Phe-OMe) | – | – | – | – | about 24 hours |
